Inhibition and Inhibition in % data for 29 compounds are collected here from patent US9315490B2, “2,5-substituted pyrimidines” (Grünenthal GmbH, priority 2014, dated 2016).

The target of one assay is T1, human PDE4B1 (Homo sapiens, UniProt Q07343).
T1 construct: host or cells: Sf9 cells
T1 sequence (Q07343 whole entry): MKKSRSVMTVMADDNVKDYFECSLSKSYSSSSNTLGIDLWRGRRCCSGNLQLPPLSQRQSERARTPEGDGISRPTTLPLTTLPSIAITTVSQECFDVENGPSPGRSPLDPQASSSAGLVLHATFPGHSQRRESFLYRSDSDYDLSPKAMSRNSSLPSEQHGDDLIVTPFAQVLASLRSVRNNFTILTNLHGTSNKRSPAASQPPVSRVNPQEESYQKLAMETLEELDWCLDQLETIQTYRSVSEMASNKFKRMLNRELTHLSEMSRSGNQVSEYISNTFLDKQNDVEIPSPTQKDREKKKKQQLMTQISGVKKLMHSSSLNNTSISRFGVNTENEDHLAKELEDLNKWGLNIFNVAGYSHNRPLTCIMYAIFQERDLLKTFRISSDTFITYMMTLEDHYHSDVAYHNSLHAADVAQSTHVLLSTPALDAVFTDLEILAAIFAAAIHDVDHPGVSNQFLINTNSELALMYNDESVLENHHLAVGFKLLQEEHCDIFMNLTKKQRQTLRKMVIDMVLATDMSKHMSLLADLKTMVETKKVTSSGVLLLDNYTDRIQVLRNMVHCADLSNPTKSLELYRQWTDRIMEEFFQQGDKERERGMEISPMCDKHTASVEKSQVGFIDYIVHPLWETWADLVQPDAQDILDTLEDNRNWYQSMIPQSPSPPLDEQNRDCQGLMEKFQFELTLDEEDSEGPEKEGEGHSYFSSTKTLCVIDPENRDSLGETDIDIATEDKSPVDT
As to the kind of experiment: cAMP HTRF assay to determine the activity of hPDE4B1. The class given is biochemical. The note with it: inhibition of PDE4B at a test concentration of 1 μM. The protocol: Biological Testing cAMP HTRF® Assay to Determine the Activity of hPDE4B1
The inhibiting effect of the compounds on the enzyme activity of human PDE4B1 was measured by the quantification of 5′-adenosine monophosphate (5′-AMP), which is formed from 3′,5′-cyclic adenosine monophosphate (cAMP). Human recombinant enzyme, expressed in Sf9 cells, and the HTRF (homogeneous time-resolved fluorescence) detection method were used in the assay.
The test compound or water (control) was mixed with the human recombinant PDE4B1 enzyme (4.8 U) in a buffer consisting of 44.4 mM tris-HCl, 5.28 mM MgCl2, 2.64 mM DTT and 0.044% Tween 20 (pH 7.8). After adding the cAMP enzyme substrate (final concentration 40 nM), the mixture was incubated for 30 minutes at room temperature. Then a fluorescence acceptor (Dye2 marked with cAMP), a fluorescence donor (anti-cAMP antibody marked with a europium cryptate) and the non-specific phosphodiesterase inhibitor IBMX (3-isobutyl-1-methylxanthine; final concentration 1 mM) were added. After 60 minutes the fluorescence transfer, which correlates with the amount of remaining cAMP, was measured with a microplate reader (Rubystar, BMG) at λex=337 nm, λem=620 nm and λem=665 nm. The enzyme activity was calculated from the quotient formed from the measured signal at 665 nm and that at 620 nm. The result was expressed as the percentage inhibition of enzyme activity of the control (without PDE4 inhibitor). The enzyme was omitted for measurement of the basal control. IC50 values (IC50=concentration causing a half-maximal inhibition of control specific activity) were derived from dose response measurements with eight different concentrations (n=2; N=1-3).
Literature: N. Saldou et al., Comparison of recombinant human PDE4 isoforms: interaction with substrate and inhibitors, Cell. Signal. Vol. 10, No. 6, 427-440, 1998
(TR-FRET usually uses a lanthanide donor and a delayed reading to cut background.)
Consider `C[S+]([O-])c1cn(-c2ncc(-c3ccccn3)cn2)c2cc(C(=O)N3CCOCC3)ccc12` (centres unmarked) [Example 50, (3-(Methylsulfinyl)-1-(5-(pyridin-2-yl)pyrimidin-2-yl)-1H-indol-6-yl)(morpholino)methanone], for which the inhibition at 1 µM was found to be 91%.

For `C[S+]([O-])c1cn(-c2ncc(-c3ccccc3F)cn2)c2cc(C(=O)N3CCCC3)ccc12` (centres unmarked) [Example 51, (1-(5-(2-Fluorophenyl)pyrimidin-2-yl)-3-(methylsulfinyl)-1H-indol-6-yl)(pyrrolidin-1-yl)methanone], the inhibition at 1 µM worked out at 86%.

For `CN(C)C(=O)c1ccc2c([S+](C)[O-])cn(-c3ncc(-c4ccccc4F)cn3)c2c1` (centres unmarked) [Example 52, 1-(5-(2-Fluorophenyl)pyrimidin-2-yl)-N,N-dimethyl-3-(methylsulfinyl)-1H-indole-6-carboxamide], the inhibition at 1 µM amounted to 91%.

For the compound `CN(C(=O)c1ccc2c([S+](C)[O-])cn(-c3ncc(-c4ccccc4F)cn3)c2c1)C1CCOC1` (centres unmarked) [Example 54, 1-(5-(2-Fluorophenyl)pyrimidin-2-yl)-N-methyl-3-(methylsulfinyl)-N-(tetrahydrofuran-3-yl)-1H-indole-6-carboxamide], the inhibition at 1 µM is 46%.

Take `C[S+]([O-])c1cn(-c2ncc(-c3ccccc3F)cn2)c2cc(C(=O)N3CCCNCC3)ccc12` (centres unmarked) [Example 55, (1,4-Diazepan-1-yl)(1-(5-(2-fluorophenyl)pyrimidin-2-yl)-3-(methylsulfinyl)-1H-indol-6-yl)methanone]: the inhibition at 1 µM was found to be 40%.

Take `C[S+]([O-])c1cn(-c2ncc(-c3ccccc3F)cn2)c2cc(C(=O)N3CCNC(=O)C3)ccc12` (centres unmarked) [Example 56, 4-(1-(5-(2-Fluorophenyl)pyrimidin-2-yl)-3-(methylsulfinyl)-1H-indole-6-carbonyl)piperazin-2-one]: the inhibition at 1 µM came out at 86%.

In the case of `CN(C(=O)c1ccc2c([S+](C)[O-])cn(-c3ncc(-c4ccccc4F)cn3)c2c1)C1CCNC1` (centres unmarked) [Example 58, 1-(5-(2-Fluorophenyl)pyrimidin-2-yl)-N-methyl-3-(methylsulfinyl)-N-(pyrrolidin-3-yl)-1H-indole-6-carboxamide], the inhibition at 1 µM is 90%.

On to `C[S+]([O-])c1cn(-c2ncc(-c3ccccc3F)cn2)c2cc(C(=O)N3CCCOCC3)ccc12` (centres unmarked) [Example 60, (1-(5-(2-Fluorophenyl)pyrimidin-2-yl)-3-(methylsulfinyl)-1H-indol-6-yl)(1,4-oxoazepan-4-yl)methanone], for which the inhibition at 1 µM worked out at 79%.

For the compound `CNC(=O)c1ccc2c([S+](C)[O-])cn(-c3ncc(-c4ccccc4F)cn3)c2c1` (centres unmarked) [Example 61, 1-(5-(2-Fluorophenyl)pyrimidin-2-yl)-N-methyl-3-(methylsulfinyl)-1H-indole-6-carboxamide], the inhibition at 1 µM came to 77%.

As for `C[S+]([O-])c1cn(-c2ncc(-c3ccccc3F)cn2)c2cc(C(=O)NCCO)ccc12` (centres unmarked) [Example 63, 1-(5-(2-Fluorophenyl)pyrimidin-2-yl)-N-(2-hydroxyethyl)-3-(methylsulfinyl)-1H-indole-6-carboxamide], the inhibition at 1 µM amounted to 37%.

As to `CN(CCO)C(=O)c1ccc2c([S+](C)[O-])cn(-c3ncc(-c4ccccc4F)cn3)c2c1` (centres unmarked) [Example 64, 1-(5-(2-Fluorophenyl)pyrimidin-2-yl)-N-(2-hydroxyethyl)-N-methyl-3-(methylsulfinyl)-1H-indole-6-carboxamide], the inhibition at 1 µM is 67%.

Turning to `COCCN(C)C(=O)c1ccc2c([S+](C)[O-])cn(-c3ncc(-c4ccccc4F)cn3)c2c1` (centres unmarked) [Example 65, 1-(5-(2-Fluorophenyl)pyrimidin-2-yl)-N-(2-methoxyethyl)-N-methyl-3-(methylsulfinyl)-1H-indole-6-carboxamide], the inhibition at 1 µM was determined as 40%.

`C[S+]([O-])c1cn(-c2ncc(-c3ccccc3F)cn2)c2cc(C(=O)N3CC[C@@H](O)C3)ccc12` (stereo partly drawn) [Example 66, (1-(5-(2-Fluorophenyl)pyrimidin-2-yl)-3-(methylsulfinyl)-1H-indol-6-yl)((R)-3-hydroxypyrrolidin-1-yl)methanone]: the inhibition at 1 µM came out at 97%.

Take `C[S+]([O-])c1cn(-c2ncc(-c3ccccc3F)cn2)c2cc(C(=O)N3CC[C@H](O)C3)ccc12` (stereo partly drawn) [Example 67, (1-(5-(2-Fluorophenyl)pyrimidin-2-yl)-3-(methylsulfinyl)-1H-indol-6-yl)((S)-3-hydroxypyrrolidin-1-yl)methanone]: the inhibition at 1 µM turned out to be 47%.

`C[S+]([O-])c1cn(-c2ncc(-c3ccccc3F)cn2)c2cc(C(=O)N3CC[C@@H](N)C3)ccc12` (some centres unmarked) [Example 68]: the inhibition at 1 µM was 108%.

With `CS(=O)(=O)c1cn(-c2ncc(-c3ccccc3F)cn2)c2cc(C(=O)N3CC[C@@H](N)C3)ccc12` [Example 69, (R)-(3-Aminopyrrolidin-1-yl)(1-(5-(2-fluorophenyl)pyrimidin-2-yl)-3-(methylsulfonyl)-1H-indol-6-yl)methanone], the inhibition at 1 µM was found to be 95%.

`C[S+]([O-])c1cn(-c2ncc(-c3ccccc3)cn2)c2cc(C(=O)N3CCNC(=O)C3)ccc12` (centres unmarked) [Example 70, 4-(3-(Methylsulfinyl)-1-(5-phenylpyrimidin-2-yl)-1H-indole-6-carbonyl)piperazin-2-one]: the inhibition at 1 µM worked out at 84%.

For the compound `COC[C@@H]1CCCN1C(=O)c1ccc2c([S+](C)[O-])cn(-c3ncc(-c4ccccc4F)cn3)c2c1` (some centres unmarked) [Example 71], the inhibition at 1 µM was 63%.

For `C[S+]([O-])c1cn(-c2ncc(-c3ccccc3F)cn2)c2cc(C(=O)N3CCC(O)CC3)ccc12` (centres unmarked) [Example 73, (1-(5-(2-Fluorophenyl)pyrimidin-2-yl)-3-(methylsulfinyl)-1H-indol-6-yl)(4-hydroxypiperidin-1-yl)methanone], the inhibition at 1 µM was determined as 78%.

As for `C[S+]([O-])c1cn(-c2ncc(-c3ccccc3F)cn2)c2cc(C(=O)NC3COC3)ccc12` (centres unmarked) [Example 75, 1-(5-(2-Fluorophenyl)pyrimidin-2-yl)-3-(methylsulfinyl)-N-(oxetan-3-yl)-1H-indole-6-carboxamide], the inhibition at 1 µM came out at 47%.

For `CN1CCN(C(=O)c2ccc3c([S+](C)[O-])cn(-c4ncc(-c5ccccc5F)cn4)c3c2)CC1=O` (centres unmarked) [Example 76, 4-(1-(5-(2-Fluorophenyl)pyrimidin-2-yl)-3-(methylsulfinyl)-1H-indole-6-carbonyl)-1-methylpiperazin-2-one], the inhibition at 1 µM was found to be 58%.

With `COC[C@H]1CCCN1C(=O)c1ccc2c([S+](C)[O-])cn(-c3ncc(-c4ccccc4F)cn3)c2c1` (stereo partly drawn) [Example 77, (1-(5-(2-Fluorophenyl)pyrimidin-2-yl)-3-(methylsulfinyl)-1H-indol-6-yl)((R)-2-(methoxymethyl)pyrrolidin-1-yl)methanone], the inhibition at 1 µM is 67%.

On to `C[S+]([O-])c1cn(-c2ncc(-c3ccccc3F)cn2)c2cc(C(=O)N3CCC[C@@H]3CO)ccc12` (stereo partly drawn) [Example 78, (1-(5-(2-Fluorophenyl)pyrimidin-2-yl)-3-(methylsulfinyl)-1H-indol-6-yl)((R)-2-(hydroxymethyl)pyrrolidin-1-yl)methanone], for which the inhibition at 1 µM was 70%.

Consider `C[S+]([O-])c1cn(-c2ncc(-c3ccccc3F)cn2)c2cc(C(=O)N3CCC[C@H]3CO)ccc12` (stereo partly drawn) [Example 79, (1-(5-(2-Fluorophenyl)pyrimidin-2-yl)-3-(methylsulfinyl)-1H-indol-6-yl)((S)-2-(hydroxymethyl)pyrrolidin-1-yl)methanone], for which the inhibition at 1 µM is 103%.

As to `C[S+]([O-])c1cn(-c2ncc(-c3ccccc3F)cn2)c2cc(C(=O)N3CCC[C@@H](O)C3)ccc12` (stereo partly drawn) [Example 80, (1-(5-(2-Fluorophenyl)pyrimidin-2-yl)-3-(methylsulfinyl)-1H-indol-6-yl)((R)-3-hydroxypiperidin-1-yl)methanone], the inhibition at 1 µM is 96%.

As for `C[S+]([O-])c1cn(-c2ncc(-c3ccccc3F)cn2)c2cc(C(=O)N3CCC[C@H](O)C3)ccc12` (stereo partly drawn) [Example 81, (1-(5-(2-Fluorophenyl)pyrimidin-2-yl)-3-(methylsulfinyl)-1H-indol-6-yl)((S)-3-hydroxypiperidin-1-yl)methanone], the inhibition at 1 µM was 63%.

Regarding `CO[C@@H]1CCN(C(=O)c2ccc3c([S+](C)[O-])cn(-c4ncc(-c5ccccc5F)cn4)c3c2)C1` (stereo partly drawn) [Example 82, (1-(5-(2-Fluorophenyl)pyrimidin-2-yl)-3-(methylsulfinyl)-1H-indol-6-yl)((R)-3-methoxypyrrolidin-1-yl)methanone], the inhibition at 1 µM was 71%.

Staying with this assay, now noted: inhibition of PDE4B at a test concentration of 1 μM, 1 µM.
`COC1CCN(C(=O)c2ccc3c([S+](C)[O-])cn(-c4ncc(-c5ccccc5F)cn4)c3c2)CC1` (centres unmarked) [Example 72, (1-(5-(2-Fluorophenyl)pyrimidin-2-yl)-3-(methylsulfinyl)-1H-indol-6-yl)(4-methoxypiperidin-1-yl)methanone] returned an Inhibition in % of 33%.

`C[S+]([O-])c1cn(-c2ncc(-c3ccccc3F)cn2)c2cc(C(=O)N3CCOC(C)(C)C3)ccc12` (centres unmarked) [Example 74, (2,2-Dimethylmorpholino)(1-(5-(2-fluorophenyl)pyrimidin-2-yl)-3-(methylsulfinyl)-1H-indol-6-yl)methanone] came in with an Inhibition in % of 63%.

What is called inhibition is the change of the read-out against control, counted positive when it falls.
